Molecular target: Sucrose Phosphate Synthase (Zea mays, UniProt P31927)
Conditions: phosphate gradient of the HAC (hydroxyapatite) stage
Procedure: During purification SPS activity is followed in 2 ways : • a) either by means of a colorimetric test (P.S. Kerr et al., Planta., 1987, 170 : 515-519) called resorcinol test described below. […] In practice, to 45 µl (microliter) of enzymatic preparation 25 µl of a buffered solution containing the two substrates is added (UDPG 70 mM, F6P 28 mM, MgCl2 15 mM, HEPES 25 mM pH 7,5). After incubation at 37°C, reaction is stopped by adding 70 µl of NaOH in solution and heating at 95°C during 10 mn. After cooling, 0,25 ml of a solution 0,1 % resorcinol in ethanol 95 % is added, then 0,75 ml of HCl 30 % is added. The OD 520 mM is read after incubation 8 mn at 80 mn, and cooling. • b) or by means of a coupled enzymatic system (S. Harbron et al., Anal. Biochem. 1980, 107 : 56-59) being composed in the following way : [drawing 3]
The disappearance of the NADH absorption at 340 nm is monitored 1 mole of NAD formed or 1 mole of NADH consumed corresponds to 1 mole of sucrose 6 P formed.
In pratice, in a quartz spectrophotometric tun thermostated at 37°C, the following solution are added. • 540 µl of HEPES buffered 50 mM, MgCl2 10 mM KCl 20 mM pH=7.5, • 250 µl of a mixture of substrates PEP (1,6 mM NaDH 0,6 mM, ATP 4 mM UDPG 112 mM), • 60 µl of an enzyme mixture (LDH 166,7 U/ml PK 333,3 U/ml, NPzK 66,7 U/ml), • 100 µl of F6P 112 mM. […]

Sucrose Phosphate Synthase, sequence (P31927 whole entry): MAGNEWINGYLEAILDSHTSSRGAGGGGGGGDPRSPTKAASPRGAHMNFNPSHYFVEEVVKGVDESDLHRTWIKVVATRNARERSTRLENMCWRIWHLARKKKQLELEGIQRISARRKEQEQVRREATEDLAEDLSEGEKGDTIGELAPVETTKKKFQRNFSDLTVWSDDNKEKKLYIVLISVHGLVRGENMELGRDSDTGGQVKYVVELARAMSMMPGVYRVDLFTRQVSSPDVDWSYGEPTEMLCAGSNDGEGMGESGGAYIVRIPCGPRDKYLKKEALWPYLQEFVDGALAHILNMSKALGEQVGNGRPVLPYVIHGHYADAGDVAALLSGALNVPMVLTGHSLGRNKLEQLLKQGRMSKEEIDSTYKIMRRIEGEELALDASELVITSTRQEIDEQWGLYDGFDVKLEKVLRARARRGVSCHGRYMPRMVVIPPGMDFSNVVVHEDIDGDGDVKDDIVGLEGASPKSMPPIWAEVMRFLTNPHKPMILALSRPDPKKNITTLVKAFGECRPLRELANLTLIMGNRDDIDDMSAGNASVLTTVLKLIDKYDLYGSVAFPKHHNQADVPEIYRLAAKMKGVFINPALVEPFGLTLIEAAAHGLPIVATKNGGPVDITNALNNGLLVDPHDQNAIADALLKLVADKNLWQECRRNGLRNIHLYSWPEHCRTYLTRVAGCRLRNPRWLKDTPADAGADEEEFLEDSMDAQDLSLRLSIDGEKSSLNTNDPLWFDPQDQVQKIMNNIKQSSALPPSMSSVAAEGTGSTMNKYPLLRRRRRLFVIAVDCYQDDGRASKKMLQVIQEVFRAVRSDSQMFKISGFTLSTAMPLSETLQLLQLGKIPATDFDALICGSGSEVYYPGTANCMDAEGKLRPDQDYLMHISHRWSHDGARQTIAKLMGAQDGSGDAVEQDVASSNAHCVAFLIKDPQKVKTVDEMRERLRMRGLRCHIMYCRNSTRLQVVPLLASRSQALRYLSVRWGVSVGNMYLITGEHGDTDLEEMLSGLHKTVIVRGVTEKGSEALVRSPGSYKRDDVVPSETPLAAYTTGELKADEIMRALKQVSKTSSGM

inhibition of SPS activity: partially inhibit SPS activity
Substance: phosphate

— patent EP0533849B1 (ROUSSEL UCLAF, priority 1991, dated 1992)
